According to ChEMBL document CHEMBL3627688, “Structure-based hybridization, synthesis and biological evaluation of novel tetracyclic heterocyclic azathioxanthone analogues as potential antitumor agents” (Eur J Med Chem, 2015):

Legend:
CCRF-CEM = test: Growth inhibition of human CCRF-CEM cells assessed as cell growth at 10 uM incubated for 48 hrs by sulforhodamine B assay; type: functional; conditions: read-out: Activity
[1] = Growth inhibition of human HOP92 cells assessed as cell growth at 10 uM incubated for 48 hrs by sulforhodamine B assay; type: functional; conditions: HOP-92, 48 h, read-out: Activity
[2] = Growth inhibition of human SF295 cells assessed as cell growth at 10 uM incubated for 48 hrs by sulforhodamine B assay; type: functional; conditions: SF-295, 48 h, read-out: Activity
HT-29 = test: Growth inhibition of human HT-29 cells assessed as cell growth at 10 uM incubated for 48 hrs by sulforhodamine B assay; type: functional; conditions: HT-29, 48 h, read-out: Activity
[3] = Growth inhibition of human COLO205 cells assessed as cell growth at 10 uM incubated for 48 hrs by sulforhodamine B assay; type: functional; conditions: COLO 205, 48 h, read-out: Activity
[4] = Growth inhibition of human NCI60 cells assessed as cell growth at 10 uM incubated for 48 hrs by sulforhodamine B assay; type: functional; conditions: NCI60, 48 h, read-out: Activity
[5] = Growth inhibition of human EKVX cells assessed as cell growth at 10 uM incubated for 48 hrs by sulforhodamine B assay; type: functional; conditions: read-out: Activity
[6] = Growth inhibition of human RPMI8226 cells assessed as cell growth at 10 uM incubated for 48 hrs by sulforhodamine B assay; type: functional; conditions: RPMI-8226, 48 h, read-out: Activity
NCI-H460 = test: Growth inhibition of human NCI-H460 cells assessed as cell growth at 10 uM incubated for 48 hrs by sulforhodamine B assay; type: functional; conditions: NCI-H460, 48 h, read-out: Activity
[7] = Growth inhibition of human HCC2998 cells assessed as cell growth at 10 uM incubated for 48 hrs by sulforhodamine B assay; type: functional; conditions: HCC 2998, 48 h, read-out: Activity
MCF7 = test: Growth inhibition of human MCF7 cells assessed as cell growth at 10 uM incubated for 48 hrs by sulforhodamine B assay; type: functional; conditions: MCF7, 48 h, read-out: Activity
U-251 = test: Growth inhibition of human U251 cells assessed as cell growth at 10 uM incubated for 48 hrs by sulforhodamine B assay; type: functional; conditions: U-251, 48 h, read-out: Activity
IGROV-1 = test: Growth inhibition of human IGROV1 cells assessed as cell growth at 10 uM incubated for 48 hrs by sulforhodamine B assay; type: functional; conditions: IGROV-1, 48 h, read-out: Activity
K562 = test: Growth inhibition of human K562 cells assessed as cell growth at 10 uM incubated for 48 hrs by sulforhodamine B assay; type: functional; conditions: K562, 48 h, read-out: Activity
T47D = test: Growth inhibition of human T47D cells assessed as cell growth at 10 uM incubated for 48 hrs by sulforhodamine B assay; type: functional; conditions: read-out: Activity
DU-145 = test: Growth inhibition of human DU145 cells assessed as cell growth at 10 uM incubated for 48 hrs by sulforhodamine B assay; type: functional; conditions: DU-145, 48 h, read-out: Activity
ACHN = test: Growth inhibition of human ACHN cells assessed as cell growth at 10 uM incubated for 48 hrs by sulforhodamine B assay; type: functional; conditions: read-out: Activity
HOP-62 = test: Growth inhibition of human HOP62 cells assessed as cell growth at 10 uM incubated for 48 hrs by sulforhodamine B assay; type: functional; conditions: HOP-62, 48 h, read-out: Activity
SR = test: Growth inhibition of human SR cells assessed as cell growth at 10 uM incubated for 48 hrs by sulforhodamine B assay; type: functional; conditions: read-out: Activity
OVCAR-5 = test: Growth inhibition of human OVCAR5 cells assessed as cell growth at 10 uM incubated for 48 hrs by sulforhodamine B assay; type: functional; conditions: OVCAR-5, 48 h, read-out: Activity
NCI-H322M = test: Growth inhibition of human NCI-H322M cells assessed as cell growth at 10 uM incubated for 48 hrs by sulforhodamine B assay; type: functional; conditions: read-out: Activity
SNB-19 = test: Growth inhibition of human SNB19 cells assessed as cell growth at 10 uM incubated for 48 hrs by sulforhodamine B assay; type: functional; conditions: SNB-19, 48 h, read-out: Activity
PC-3 = test: Antiproliferative activity against human PC3 cells assessed as cell viability incubated for 72 hrs by MTT assay; type: functional, cell-based; conditions: PC-3, 72 h
HCT-15 = test: Growth inhibition of human HCT15 cells assessed as cell growth at 10 uM incubated for 48 hrs by sulforhodamine B assay; type: functional; conditions: HCT-15, 48 h, read-out: Activity
SK-MEL-5 = test: Growth inhibition of human SK-MEL-5 cells assessed as cell growth at 10 uM incubated for 48 hrs by sulforhodamine B assay; type: functional; conditions: SK-MEL-5, 48 h, read-out: Activity
TK-10 = test: Growth inhibition of human TK10 cells assessed as cell growth at 10 uM incubated for 48 hrs by sulforhodamine B assay; type: functional; conditions: TK-10, 48 h, read-out: Activity
SK-OV-3 = test: Growth inhibition of human SKOV3 cells assessed as cell growth at 10 uM incubated for 48 hrs by sulforhodamine B assay; type: functional; conditions: SK-OV-3, 48 h, read-out: Activity
A498 = test: Growth inhibition of human A498 cells assessed as cell growth at 10 uM incubated for 48 hrs by sulforhodamine B assay; type: functional; conditions: A498, 48 h, read-out: Activity

Row | Structure (SMILES) | growth at 10 µM (CCRF-CEM) [%] | growth at 10 µM [1] [%] | growth at 10 µM [2] [%] | growth at 10 µM (HT-29) [%] | growth at 10 µM [3] [%] | growth at 10 µM [4] [%] | growth at 10 µM [6] [%] | growth at 10 µM (NCI-H460) [%] | growth at 10 µM [7] [%] | growth at 10 µM (MCF7) [%] | growth at 10 µM (U-251) [%] | growth at 10 µM (IGROV-1) [%] | growth at 10 µM (K562) [%] | growth at 10 µM (T47D) [%] | growth at 10 µM (DU-145) [%] | growth at 10 µM (ACHN) [%] | growth at 10 µM (HOP-62) [%] | growth at 10 µM (SR) [%] | growth at 10 µM (OVCAR-5) [%] | growth at 10 µM (NCI-H322M) [%] | also measured
1 | O=C(O)c1c(Sc2ccc(Cl)cc2)c(O)nc2ccccc12 | 98.3 | 73 | 99 | 101 | 109 | 102 | 98.1 | 104 | 101 | 92 | 99.6 | 104 | 112 | 99.6 | 115 | 113 | 116 | 106 | 112 | 101 | growth at 10 µM [5]: 89.5%; growth at 10 µM (SNB-19): 97.2%; IC50 (PC-3): > 15 µM; growth at 10 µM (HCT-15): 108%; growth at 10 µM (SK-MEL-5): 98.1%; growth at 10 µM (TK-10): 118%
2 | O=c1c2ccc(Cl)cc2sc2c(Cl)nc3ccccc3c12 | 93.1 | 90.8 | 90.3 | 99.7 | 112 | 98.1 | 100 | 103 | 123 | 82.6 | 102 | 96.1 | 101 | 110 | 114 | 86.8 | 82 | 89 | 100 | 100 | growth at 10 µM (SK-OV-3): 101%; growth at 10 µM (A498): 106%; growth at 10 µM (SNB-19): 108%; IC50 (PC-3): > 15 µM; growth at 10 µM (HCT-15): 102%; growth at 10 µM (SK-MEL-5): 97.4%; growth at 10 µM (TK-10): 109%
